Laboratory results taken from ChEMBL document CHEMBL1201862, “PubChem BioAssay data set” (2004).
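How tested: cells in 96-well plates exposed to compound for 48 hours at five concentrations. The concentration for 50% growth inhibition is given as GI50.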 Calls of active or inactive are those of the source. Rule as the data show it: active = GI50 up to about 1.1 µM and inactive = higher.

Key:
Experiment in all cases: DTP human tumour cell line panel, 48 h
A498 = tested on: A498
A549 = tested on: A549
CCRF-CEM = tested on: CCRF-CEM
DMS-114 = tested on: DMS-114
EKVX = tested on: EKVX
HL-60 = tested on: HL-60
HT-29 = tested on: HT-29
K562 = tested on: K562
MOLT-4 = tested on: MOLT-4
NCI-H460 = tested on: NCI-H460
RPMI-8226 = tested on: RPMI-8226
SN12C = tested on: SN12C
SNB-75 = tested on: SNB-75
SR = tested on: SR
U-251 = tested on: U-251
COLO 205 = tested on: COLO 205
KM12 = tested on: KM12
SK-OV-3 = tested on: SK-OV-3
BT-549 = tested on: BT-549
MCF7 = tested on: MCF7

SMILES | GI50 (A498) | GI50 (A549) | GI50 (CCRF-CEM) | GI50 (DMS-114) | GI50 (EKVX) | GI50 (HL-60) | GI50 (HT-29) | GI50 (K562) | GI50 (MOLT-4) | GI50 (NCI-H460) | GI50 (RPMI-8226) | GI50 (SN12C) | GI50 (SNB-75) | GI50 (SR) | GI50 (U-251) | GI50 (COLO 205) | GI50 (KM12) | GI50 (SK-OV-3) | GI50 (BT-549) | GI50 (MCF7)
CCOc1ccccc1NC(=O)CC1C(=O)Nc2ccccc2[S+]1[O-] (stereo not drawn) | > 100 µM (inactive) | > 100 µM (inactive) | 39.8 µM (inactive) | > 100 µM (inactive) | 43 µM (inactive) | 26.8 µM (inactive) | > 100 µM (inactive) | 49.7 µM (inactive) | 10.5 µM (inactive) | 80 µM (inactive) | 11.4 µM (inactive) | > 100 µM (inactive) | > 100 µM (inactive) | 16.5 µM (inactive) | 67.9 µM (inactive) | – | – | – | – | –
O=Cn1c2ccccc2c2ccccc21 | > 100 µM (inactive) | > 100 µM (inactive) | > 100 µM (inactive) | > 100 µM (inactive) | > 100 µM (inactive) | > 100 µM (inactive) | – | > 100 µM (inactive) | > 100 µM (inactive) | > 100 µM (inactive) | > 100 µM (inactive) | > 100 µM (inactive) | – | > 100 µM (inactive) | > 100 µM (inactive) | > 100 µM (inactive) | > 100 µM (inactive) | > 100 µM (inactive) | – | –
COc1cc2c3c(c1OC)-c1cc4c(cc1CC3(C#N)N(C(=O)c1ccccc1)CC2)OCO4 (stereo not drawn) | 41.1 µM (inactive) | 37.5 µM (inactive) | > 100 µM (inactive) | 26.5 µM (inactive) | 45.8 µM (inactive) | > 100 µM (inactive) | > 100 µM (inactive) | 73.5 µM (inactive) | 68.4 µM (inactive) | 52.6 µM (inactive) | > 87.5 µM (inactive) | 50.7 µM (inactive) | 9.12 µM (inactive) | 65.9 µM (inactive) | 21.1 µM (inactive) | > 100 µM (inactive) | > 75.5 µM (inactive) | 25.7 µM (inactive) | > 100 µM (inactive) | 91.6 µM (inactive)
COc1cc(C2c3cc4c(cc3[C@H](NC(=O)c3cccs3)C3COC(=O)[C@H]23)OCO4)cc(OC)c1OC (stereo partly drawn) | 0.012 µM (active) | < 0.019 µM (active) | < 0.0179 µM (active) | 0.0113 µM (active) | 0.0731 µM (active) | < 0.01 µM (active) | 0.012 µM (active) | < 0.0156 µM (active) | < 0.0149 µM (active) | 0.0172 µM (active) | 0.0134 µM (active) | < 0.0187 µM (active) | < 0.0152 µM (active) | 0.0122 µM (active) | < 0.0148 µM (active) | 0.0109 µM (active) | < 0.01 µM (active) | 0.027 µM (active) | < 0.01 µM (active) | < 0.01 µM (active)
O=C(NCc1ccccc1)c1cc2ccc(O)c(O)c2cn1 | > 100 µM (inactive) | 38.5 µM (inactive) | 32.1 µM (inactive) | 12.8 µM (inactive) | > 100 µM (inactive) | 18.8 µM (inactive) | 44.1 µM (inactive) | 33.8 µM (inactive) | – | 21.7 µM (inactive) | 19.1 µM (inactive) | 17.6 µM (inactive) | 17.8 µM (inactive) | 32.6 µM (inactive) | 23.3 µM (inactive) | 32.1 µM (inactive) | 33.2 µM (inactive) | > 100 µM (inactive) | – | –
Cc1c(Cl)ccc2c1NC(=O)C2(O)CC(=O)c1ccc(Cl)cc1Cl (stereo not drawn) | 16.2 µM (inactive) | > 50 µM (inactive) | 10.3 µM (inactive) | 38.5 µM (inactive) | > 46.5 µM (inactive) | – | > 50 µM (inactive) | 19.1 µM (inactive) | 22.5 µM (inactive) | > 50 µM (inactive) | > 41 µM (inactive) | > 50 µM (inactive) | 12.8 µM (inactive) | 0.264 µM (active) | 22.6 µM (inactive) | > 50 µM (inactive) | > 50 µM (inactive) | > 45.9 µM (inactive) | > 50 µM (inactive) | > 50 µM (inactive)
O=C1OCc2nc3c(c(-c4ccccc4C(F)(F)F)c21)C(=O)OC3 | > 100 µM (inactive) | > 100 µM (inactive) | > 100 µM (inactive) | > 100 µM (inactive) | > 100 µM (inactive) | > 100 µM (inactive) | – | > 100 µM (inactive) | > 100 µM (inactive) | > 100 µM (inactive) | > 100 µM (inactive) | > 100 µM (inactive) | – | > 100 µM (inactive) | > 100 µM (inactive) | > 100 µM (inactive) | > 100 µM (inactive) | > 100 µM (inactive) | – | –
CCC1C(=O)OCc2c1cc1n(c2=O)Cc2ccccc2-1 (stereo not drawn) | > 100 µM (inactive) | > 100 µM (inactive) | > 100 µM (inactive) | > 100 µM (inactive) | > 100 µM (inactive) | > 100 µM (inactive) | > 100 µM (inactive) | > 100 µM (inactive) | > 100 µM (inactive) | > 100 µM (inactive) | > 100 µM (inactive) | > 100 µM (inactive) | > 100 µM (inactive) | > 100 µM (inactive) | – | – | > 100 µM (inactive) | – | – | –
